Data reported in patent publication US5248689A, “Substituted N-(imidazolyl)alkyl alanine derivatives” (SmithKline Beecham Corporation, priority 1990, dated 1993).
Read-outs that look alike come from different tables or passages of the source.

Key:
[1] = tested on: conscious rats made renin dependent hypertensive by ligation of the left renal artery; assay: antihypertensive activity in conscious renin dependent hypertensive (renal artery ligated) rats; type: in vivo; conditions: Rattus norvegicus, 7-8 days after ligation, read-out: IC30 (dose needed to reduce mean arterial pressure by 30 mm Hg)
Procedure: (§1) Angiotensin II antagonist activity of the compounds of Formulas (I) is assessed by in vitro and in vivo methods. In vitro antagonist activity is determined by the ability of the compounds to compete with ^125 I-angiotensin II for binding to vascular angiotensin II receptors and by their ability to antagonize the contractile response to angiotensin II in the isolated rabbit aorta. In vivo activity is evaluated by the efficacy of the compounds to inhibit the pressor response to exogenous angiotensin II in conscious rats and to lower blood pressure in a rat model of renin dependent hypertension.
The antihypertensive activity of the compounds is measured by their ability to reduce mean arterial pressure in conscious rats made renin dependent hypertensive by ligation of the left renal artery (Cangiano et al., J. Pharmacol. Exp. Ther. 208:310, 1979). Renal artery ligated rats are prepared with indwelling catheters as described above. Seven to eight days following renal artery ligation, the time at which plasma renin levels are highest, the conscious rats are placed in restrainers and mean arterial pressure is continuously recorded prior to and following the administration of the compounds intravenously or orally. The dose of compound needed to reduce mean arterial pressure by 30 mm Hg (IC30) is used as an estimate of potency. […]

[2] = tested on: pressor response to angiotensin II; assay: inhibition of pressor response to angiotensin II in conscious rats; type: in vivo; conditions: Rattus norvegicus, intravenous angiotensin II 250 mg/kg [sic], read-out: IC50 (dose needed to produce 50% inhibition of the control response to angiotensin II)
Procedure: as §1
Rats are prepared with indwelling femoral arterial and venous catheters and a stomach tube (Gellai et al., KidneyInt. 15:419, 1979). Two to three days following surgery the rats are placed in a restrainer and blood pressure is continuously monitored from the arterial catheter with a pressure transducer and recorded on a polygraph. The change in mean arterial pressure in response to intravenous injections of […] angiotensin II is compared at various time points prior to and following the administration of the compounds intravenously or orally at doses of 3 to 300 mg/kg. The dose of compound needed to produce 50% inhibition of the control response to angiotensin II IC50) is used to estimate the potency of the compounds.

SMILES: CCCCc1ncc(CN[C@@](C)(Cc2cccs2)C(=O)O)n1Cc1ccccc1Cl [Example 6, N-[{1-[(2-chlorophenyl)methyl]-2-n-butyl-1H-imidazol-5-yl}methyl]-α-methyl-β-(2-thienyl)alanine]
- ED (30 mm Hg) ([1]; iv): 15 mg/kg
- ED (30 mm Hg) ([1]; po, orally): 70 mg/kg
- ED50 ([2]; i.v.): 11 mg/kg
- ED50 ([2]; po, orally): 45 mg/kg
